Values belong to the compound of their own block, whether it stands above or below them.
Columns and labels:
[1] = tested on: OVSAHO ovarian cancer line; experiment: 72 h growth inhibition assay; assay type: cell-based; settings: for IC50: Homo sapiens, 72 h
Protocol: (§1) The cancer cell growth-inhibitory potential of amine-prodrugs (compounds 19-AP1 and 19-AP2) was evaluated. Compounds 19, 19-AP1 and 19-AP2 were screened in ovarian cancer lines (A2780, and OVSAHO) and immortalized fallopian tube epithelial cells (FT282E1) in a 72 h growth inhibition assay.

[2] = tested on: FT282E1 immortalized fallopian tube epithelial cells; experiment: 72 h growth inhibition assay; assay type: cell-based; settings: Epithelial cell; FT282E1, 72 h
Protocol: as §1

[3] = tested on: A2780 ovarian cancer line; experiment: 72 h growth inhibition assay; assay type: cell-based; settings: Homo sapiens, A2780, 72 h
Protocol: as §1

[4] = Phase II and III clinical trials; cited from earlier work
[5] = tested on: FTE282E1, OVSAHO, HPNE, MiaPaCa2 and S2013 cell lines; experiment: growth inhibition assays in a panel of five cell lines; settings: for potency rank among inhibitors treated as single agents: irrespective of the cell line
[6] = tested on: CaOV3 ovarian cancer cell line; experiment: growth inhibition, synergy studies; assay type: cell-based; settings: Homo sapiens, Caov-3, read-out: IC50 (Mean ± SD)
CDK4 = CDK4 (Homo sapiens, UniProt P11802); experiment: cell-free CDK inhibitor assay; assay type: biochemical; settings: for fold less potent than palbociclib: CDK4; for IC50: CDK4, cell-free
CDK4, sequence (P11802 whole entry): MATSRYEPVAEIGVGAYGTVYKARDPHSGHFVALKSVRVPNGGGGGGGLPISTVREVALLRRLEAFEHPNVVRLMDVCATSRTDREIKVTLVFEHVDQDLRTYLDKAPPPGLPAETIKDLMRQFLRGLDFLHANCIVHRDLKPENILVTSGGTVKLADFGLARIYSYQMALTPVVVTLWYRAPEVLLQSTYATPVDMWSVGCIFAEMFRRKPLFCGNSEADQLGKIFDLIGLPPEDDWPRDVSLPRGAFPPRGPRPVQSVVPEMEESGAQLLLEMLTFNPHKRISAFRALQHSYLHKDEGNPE
CDK4, sequence (P24385 whole entry partner): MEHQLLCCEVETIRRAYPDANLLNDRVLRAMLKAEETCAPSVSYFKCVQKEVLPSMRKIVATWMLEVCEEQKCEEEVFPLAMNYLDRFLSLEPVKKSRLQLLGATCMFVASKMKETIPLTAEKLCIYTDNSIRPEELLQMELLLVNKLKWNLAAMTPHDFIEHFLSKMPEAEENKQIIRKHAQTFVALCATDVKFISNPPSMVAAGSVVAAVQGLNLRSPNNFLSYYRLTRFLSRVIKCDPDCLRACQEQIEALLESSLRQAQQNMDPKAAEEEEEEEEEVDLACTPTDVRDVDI

[7] = tested on: OVCAR8 ovarian cancer cell line; experiment: growth inhibition, synergy studies; assay type: cell-based; settings: Homo sapiens, OVCAR-8, read-out: IC50 (Mean ± SD)
[8] = tested on: A2780 ovarian cancer cell line; experiment: growth inhibition, synergy studies; assay type: cell-based; settings: Homo sapiens, read-out: IC50 (Mean ± SD)
[9] = tested on: OVCAR5 ovarian cancer cell line; experiment: growth inhibition, synergy studies; assay type: cell-based; settings: Homo sapiens, OVCAR-5, read-out: IC50 (Mean ± SD)
[10] = tested on: FT282C11 immortalized fallopian tube epithelial cell line; experiment: growth inhibition, synergy studies; assay type: cell-based; settings: read-out: IC50 (Mean ± SD)
[11] = tested on: SKOV3 ovarian cancer cell line; experiment: growth inhibition, synergy studies; assay type: cell-based; settings: for IC50: Homo sapiens, SK-OV-3, SKOV3, read-out: IC50 (Mean ± SD)
[12] = tested on: 9 ovarian cancer and 2 immortalized fallopian tube epithelial cell lines; experiment: growth inhibition, expanded panel, average over cell lines; assay type: cell-based; settings: average over 11 cell lines
Source text: The ^AveCI for compound 5 in SKOV3 cells was 0.2 indicating strong synergism.

[13] = tested on: FT282E1 immortalized fallopian tube epithelial cell line; experiment: growth inhibition, synergy studies; assay type: cell-based; settings: for IC50: Epithelial cell, FT282E1, read-out: IC50 (Mean ± SD)
CDK6 = CDK6 (Homo sapiens, UniProt Q00534); experiment: cell-free CDK inhibitor assay; assay type: biochemical; settings: for fold less potent than palbociclib: CDK6; for IC50: CDK6, cell-free
CDK6, sequence (Q00534 whole entry): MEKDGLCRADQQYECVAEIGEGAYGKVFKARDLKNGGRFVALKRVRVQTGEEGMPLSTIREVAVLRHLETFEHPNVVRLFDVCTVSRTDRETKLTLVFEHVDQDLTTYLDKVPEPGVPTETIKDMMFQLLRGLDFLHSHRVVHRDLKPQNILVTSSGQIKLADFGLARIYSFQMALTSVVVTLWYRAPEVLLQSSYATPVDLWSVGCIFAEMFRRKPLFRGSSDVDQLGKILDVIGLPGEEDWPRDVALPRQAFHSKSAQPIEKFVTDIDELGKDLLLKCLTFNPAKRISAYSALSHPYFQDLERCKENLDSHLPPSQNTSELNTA
CDK6, sequence (P30281 whole entry partner): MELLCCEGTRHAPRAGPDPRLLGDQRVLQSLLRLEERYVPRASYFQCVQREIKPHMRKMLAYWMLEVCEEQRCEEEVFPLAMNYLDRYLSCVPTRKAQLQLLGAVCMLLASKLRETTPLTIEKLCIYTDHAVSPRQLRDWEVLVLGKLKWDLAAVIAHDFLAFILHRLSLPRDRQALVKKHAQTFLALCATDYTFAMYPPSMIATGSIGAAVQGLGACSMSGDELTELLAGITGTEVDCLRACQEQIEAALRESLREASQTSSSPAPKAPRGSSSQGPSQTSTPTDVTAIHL

[14] = tested on: OVSAHO ovarian cancer cell line; experiment: growth inhibition, synergy studies; assay type: cell-based; settings: for IC50: Homo sapiens, OVSAHO, read-out: IC50 (Mean ± SD)
[15] = tested on: OVCAR4 ovarian cancer cell line; experiment: growth inhibition, synergy studies; assay type: cell-based; settings: Homo sapiens, OVCAR-4, read-out: IC50 (Mean ± SD)
[16] = tested on: SNU119 ovarian cancer cell line; experiment: growth inhibition, synergy studies; assay type: cell-based; settings: read-out: IC50 (Mean ± SD)
[17] = tested on: Kuramochi ovarian cancer cell line; experiment: growth inhibition, synergy studies; assay type: cell-based; settings: read-out: IC50 (Mean ± SD)
[18] = 19F NMR kinetics of release of compound 19 from prodrug; assay type: physicochemical; settings: release of 4-trifluoromethylpiperidine
Source text: Next, to assess the kinetics of the release of the active compound 19 from the prodrug compound 19-AP1, the release of 4trifluoropiperidine from the prodrug compound 19-AP1 was monitored using ^19F-NMR spectroscopy following a reported method. (Woods, Mo, Bieberich, Alavanja, & Colby, 2011). […] This observation is consistent with previously reported studies with a prodrug of parthenolide.

[19] = cysteine binding assay using Ellman's reagent; assay type: physicochemical; settings: 19 vs prodrug under similar conditions
Source text: Without wishing to be bound by theory, it is believed that the α-methylene-γ-butyrolactone moiety on compound 19 is reactive toward biological nucleophiles such as glutathione and cysteine. To determine if secondary amine prodrug of compound 19 (Compound 19-AP1) results in improved stability, the reactivity of analog compound 19 and the prodrug compound 19-AP1 was compared in a cysteine binding assay using Ellman's reagent (FIG. 1B).

IKKβ = target: T1, IKKβ (Homo sapiens, UniProt O14920); experiment: target engagement in A2780 cells (click chemistry pull-down, Western blot); assay type: cell-based; settings: 48 h
T1 construct: endogenous in cells; host or cells: A2780
T1 sequence (O14920 whole entry): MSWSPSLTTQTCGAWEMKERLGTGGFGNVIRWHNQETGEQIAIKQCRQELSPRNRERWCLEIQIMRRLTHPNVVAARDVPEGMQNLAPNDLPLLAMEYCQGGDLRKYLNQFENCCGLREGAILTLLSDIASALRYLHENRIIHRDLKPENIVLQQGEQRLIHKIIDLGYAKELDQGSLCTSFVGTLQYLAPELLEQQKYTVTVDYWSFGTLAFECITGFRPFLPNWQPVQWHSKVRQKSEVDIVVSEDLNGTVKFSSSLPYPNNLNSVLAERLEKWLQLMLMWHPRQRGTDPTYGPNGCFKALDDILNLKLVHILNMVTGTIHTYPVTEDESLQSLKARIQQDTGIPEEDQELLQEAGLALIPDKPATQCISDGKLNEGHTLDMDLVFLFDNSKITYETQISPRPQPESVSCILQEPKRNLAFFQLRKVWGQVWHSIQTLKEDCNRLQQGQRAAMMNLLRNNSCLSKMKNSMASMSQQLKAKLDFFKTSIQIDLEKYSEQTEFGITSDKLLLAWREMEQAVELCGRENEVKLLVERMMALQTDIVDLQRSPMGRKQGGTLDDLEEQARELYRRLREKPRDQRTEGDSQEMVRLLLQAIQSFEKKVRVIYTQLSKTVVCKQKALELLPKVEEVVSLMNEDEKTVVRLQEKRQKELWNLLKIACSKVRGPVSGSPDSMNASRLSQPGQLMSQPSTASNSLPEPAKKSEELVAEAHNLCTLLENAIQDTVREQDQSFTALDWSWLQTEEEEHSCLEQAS
Protocol: (§2) Briefly, the cells were incubated with 10 μM of compound 4 for […]. In cells, compound 4 is converted to compound 3 with an active methylene group which reacts with surface-exposed cysteine residues on proteins. The lysate was treated with click reagents (TCEP, TBTA and CuSO4) and azido-biotin. Biotin-tagged-3-bound proteins were subjected to monoavidin column. Biotin-tagged proteins were captured, the column was washed to removed untagged proteins and the biotin-tagged-3-bound proteins were eluted with regeneration buffer (6M urea/PBS). The eluted lysates were subjected to Western blot analyses and probed for proteins (IKKβ, RELA, IκBα and IKKγ) in the IKK complex.
(§3) To determine target engagement in cells, cancer cells (A2780) were treated with the compound 4, which is an alkyne-tagged analog of prodrug compound 19-AP1 for 48 h (FIG. 2B). Cells were then harvested, washed and pelleted. Unbound compound 4 was removed by extensively washing the cell pellet. The cell pellets were lysed, and 2 mg/mL of lysates were subjected to click chemistry with TAMRA-Biotin-Azide trifunctional probe (10 mM stock, 20 μL, click chemistry tools), and other click reagents (TCEP, 100 mM stock, 20 μL; TBTA 13.5 mM stock, 20 μL and CuSO4 100 mM stock, 10 μL) to make total volume of 1 mL. The reaction was incubated for 3 h at RT. The lysates were incubated with monomeric avidin beads for additional 1 h. […]

RELA = target: T2, RELA (Homo sapiens, UniProt Q04206); experiment: as above; assay type: cell-based; settings: 48 h
T2 construct: endogenous in cells; host or cells: A2780
T2 sequence (Q04206 whole entry): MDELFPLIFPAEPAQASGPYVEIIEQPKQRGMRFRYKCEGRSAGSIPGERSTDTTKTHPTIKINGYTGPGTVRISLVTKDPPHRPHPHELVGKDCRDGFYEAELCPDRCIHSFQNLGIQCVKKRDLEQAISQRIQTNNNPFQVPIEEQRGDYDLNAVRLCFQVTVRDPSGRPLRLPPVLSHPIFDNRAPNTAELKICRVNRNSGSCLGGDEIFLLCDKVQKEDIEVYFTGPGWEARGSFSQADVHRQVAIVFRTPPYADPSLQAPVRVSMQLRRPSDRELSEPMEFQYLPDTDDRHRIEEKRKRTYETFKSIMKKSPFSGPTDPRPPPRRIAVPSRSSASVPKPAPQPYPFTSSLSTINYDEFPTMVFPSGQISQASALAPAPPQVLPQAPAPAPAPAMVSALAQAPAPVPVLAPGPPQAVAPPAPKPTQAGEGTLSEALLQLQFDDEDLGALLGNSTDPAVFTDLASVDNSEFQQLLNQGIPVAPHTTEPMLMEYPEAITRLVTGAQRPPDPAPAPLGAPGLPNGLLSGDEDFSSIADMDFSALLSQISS
Protocol: as §2, §3

IC50 [1]: 9.81 ± 1.07 µM
IC50 [3]: 5.38 ± 0.33 µM
Compound: CN(C)CC1CC2(OC1=O)C(=O)Nc1ccccc12 (stereo not drawn) [Compound 19-AP2, 4-((dimethylamino)methyl)-3,4-dihydro-5H-spiro[furan-2,3′-indoline]-2′,5-dione]
potency relative to parent compound 19 [1]: more potent
IC50 [2]: 12 ± 1.26 µM

Compound: COc1cccc2c1C(=O)c1c(O)c3c(c(O)c1C2=O)C[C@@](O)(/C(CO)=N/NC(=O)CCCCCN1C(=O)C=CC1=O)C[C@@H]3O[C@H]1C[C@H](N)[C@H](O)[C@H](C)O1 [INNO-206]
cardiotoxicity profile compared with doxorubicin [4]: far superior

Compound: O=C(NC1CCN(CC2CC3(OC2=O)C(=O)Nc2ccccc23)CC1)c1n[nH]cc1NC(=O)c1c(Cl)cccc1Cl (stereo not drawn) [Compound 7, 4-(2,6-dichlorobenzamido)-N-(1-((2′,5-dioxo-4,5-dihydro-3H-spiro[furan-2,3′-indolin]-4yl)methyl)piperidin-4-yl)-1H-pyrazole-3-carboxamide]
potency relative to the palbociclib based compounds (compounds 5 and 6) [5]: more potent

IC50 [6]: 5.5 ± 0.5 µM
fold less potent than palbociclib (CDK4): ~100 fold
IC50 (CDK4): 0.046 ± 0.014 µM
IC50 [7]: 9.1 ± 0.9 µM
IC50 [8]: 6.6 ± 1.3 µM
IC50 [9]: 9.3 ± 0.9 µM
IC50 [11]: 15.4 ± 1.5 µM
fold less potent than palbociclib (CDK6): ~20 fold
IC50 (CDK6): 0.009 ± 0.001 µM
IC50 [14]: 11.4 ± 0.9 µM
IC50 [15]: 17.9 ± 1.4 µM
IC50 [16]: 8.8 ± 1.6 µM
IC50 [17]: > 40 µM
Compound: CC(=O)c1c(C)c2cnc(Nc3ccc(N4CCN(CC5CC6(OC5=O)C(=O)Nc5ccccc56)CC4)cn3)nc2n(C2CCCC2)c1=O (stereo not drawn) [Compound 5, 4-((4-(6-((6-Acetyl-8-cyclopentyl-5-methyl-7-oxo-7,8-dihydropyrido[2,3-d]pyrimidin-2yl)amino)pyridin-3-yl)piperazin-1-yl)methyl)-3,4-dihydro-5H-spiro[furan-2,3′-indoline]-2′,5dione]
IC50 [10]: 21.8 ± 1.5 µM
average combination index (AveCI) ([11]; SKOV3 cells): 0.2
fold less potent than the corresponding 1:1 mixture, on an average [12]: equipotent
fold more potent than the parthenolide-palbociclib compound 6 [12]: ~3 fold
IC50 [13]: 14.6 ± 1.2 µM
average combination index (AveCI) ([13]; FT282E1 cells): > 1.0
average combination index (AveCI) ([14]; OVSAHO cells, effective dose (ED) 50, 75 and 90): 0.9

period over which the prodrug is hydrolyzed slowly to release the active compound 19 [18]: 72 h
reactivity towards free cysteine [19]: more stable
IC50 [1]: 10.8 ± 1.28 µM
IC50 [3]: 5.71 ± 0.24 µM
Compound: O=C1OC2(CC1CN1CCC(C(F)(F)F)CC1)C(=O)Nc1ccccc12 (stereo not drawn) [Compound 19-AP1, 4-((4-(trifluoromethyl)piperidin-1-yl)methyl)-3,4-dihydro-5H-spiro[furan-2,3′-indoline]-2′,5dione]
potency relative to parent compound 19 [1]: more potent
IC50 [2]: 10.2 ± 0.56 µM

covalent binding of IKKβ protein (IKKβ): observed
covalent binding of RELA protein (RELA): observed
Compound: C#CCN1C(=O)C2(CC(CN3CCC(C(F)(F)F)CC3)C(=O)O2)c2ccccc21 (stereo not drawn) [Compound 4, 1′-(prop-2-yn-1-yl)-4-((4-(trifluoromethyl)piperidin-1-yl)methyl)-3,4-dihydro-5H-spiro[furan2,3′-indoline]-2′,5-dione]

IC50 [6]: 25 ± 3.2 µM
fold less potent than palbociclib (CDK4): ~200 fold
IC50 (CDK4): 0.085 ± 0.018 µM
IC50 [7]: 38.4 ± 4.5 µM
IC50 [8]: 31 ± 7 µM
IC50 [9]: 32.6 ± 4.4 µM
IC50 [11]: > 40 µM
fold less potent than palbociclib (CDK6): ~50 fold
IC50 (CDK6): 0.018 ± 0.001 µM
IC50 [14]: 31.1 ± 2.3 µM
IC50 [15]: > 40 µM
IC50 [16]: 34.9 ± 6.3 µM
IC50 [17]: > 40 µM
Compound: CC(=O)c1c(C)c2cnc(Nc3ccc(N4CCN(CC5C(=O)O[C@@H]6[C@H]7O[C@]7(C)CCC/C=C(\C)C[C@@H]56)CC4)cn3)nc2n(C2CCCC2)c1=O (stereo partly drawn) [Compound 6, 6-Acetyl-8-cyclopentyl-2-((5-(4-(((3R,3aS,9aR,10aS,10bS,E)-6,9a-dimethyl-2-oxo2,3,3a,4,5,8,9,9a,10a,10b-decahydrooxireno[2′,3′:9,10]cyclodeca[1,2-b]furan-3yl)methyl)piperazin-1-yl)pyridin-2-yl)amino)-5-methylpyrido[2,3-d]pyrimidin-7(8H)-one]
IC50 [10]: 25.6 ± 4.8 µM
fold less potent than the corresponding 1:1 mixture, on an average [12]: ~7 fold
IC50 [13]: > 40 µM

reactivity towards free cysteine [19]: reacted rapidly
IC50 [1]: 20.4 ± 4.71 µM
IC50 [3]: 2.15 ± 0.15 µM
Compound: C=C1CC2(OC1=O)C(=O)Nc1ccccc12 (stereo not drawn) [Compound 19, 4-methylene-3,4-dihydro-5H-spiro(furan-2,3′-indoline)-2′,5-dione, reference compound]
potency rank among inhibitors treated as single agents [5]: AT7519>compound 19>parthenolide>palbociclib
IC50 [2]: 5.28 ± 0.17 µM

Compound: C/C1=C\CCC[C@@]2(C)O[C@@H]2[C@H]2OC(=O)C(CN3CCC(NC(=O)c4n[nH]cc4NC(=O)c4c(Cl)cccc4Cl)CC3)[C@@H]2C1 (stereo partly drawn) [Compound 8, 4-(2,6-dichlorobenzamido)-N-(1-(((3R,3aS,9aR,10aS,10bS,E)-6,9a-dimethyl-2-oxo2,3,3a,4,5,8,9,9a,10a,10b-decahydrooxireno[2′,3′:9,10]cyclodeca[1,2-b]furan-3yl)methyl)piperidin-4-yl)-1H-pyrazole-3-carboxamide]
potency relative to the palbociclib based compounds (compounds 5 and 6) [5]: more potent

Compound: O=C(NC1CCNCC1)c1[nH]ncc1NC(=O)c1c(Cl)cccc1Cl [AT7519, reference compound]
potency rank among inhibitors treated as single agents [5]: AT7519>compound 19>parthenolide>palbociclib

Reference: patent US20230174548A1, “SYMBIOTIC PRODRUGS FOR THE TREATMENT OF CANCER AND OTHER DISEASES” (BOARD OF REGENTS OF THE UNIVERSITY OF NEBRASKA, priority 2020, published 2023)
